Results on 56 compounds are retold here after patent US12507703B2, “Methods, devices and compositions for preserving human milk” (The Trustees of Princeton University, priority 2023, dated 2025).

“And” between values parts separate entries of the source, which are not always exact repeats. Identical values can stand only once.

The test system of the first experiment is lipase. As to the kind of experiment: Lipase/lipolysis assay (EnzChek Lipase Substrate, quenched BODIPY-fatty acid conjugate) on stored human milk. As to Lipase (RFU): test concentration or dose not given here.
Settings: not given
Turning to `CCN(CC)CCOC(=O)C(Cc1cccc2ccccc12)CC1CCCO1.O=C(O)C(=O)O` (stereo not drawn) [Naftidrofuryl (oxalate)], the “Lipase (RFU)” value was 1022.029 RFU.
Consider `CCCCCCC[C@H](O)CC(=O)CCc1ccc(O)c(OC)c1` [Compound 8-Gingerol], for which the “Lipase (RFU)” value was 724.4815 RFU.
Same read-out and setting: the value for Dextrin was 915.3079 RFU; that for `CC1=C(C)C(=O)O[C@@H]([C@](C)(O)[C@H]2CC[C@H]3[C@@H]4[C@@H]5O[C@@H]5[C@@]5(O)CC=CC(=O)[C@]5(C)[C@H]4CC[C@]23C)C1` [Withanolide A] was 840.7696 RFU; that for `CC(=O)O[C@H]1CC(=O)OC(C)(C)[C@@H]2CC(=O)[C@]3(C)[C@H](CC[C@@]4(C)[C@H](c5ccoc5)OC(=O)[C@H]5O[C@]543)[C@@]12C` [Nomilin] was 989.5541 RFU.
In the case of `C[C@@H]1O[C@@H](O[C@H]2C[C@@H](O)[C@]3(CO)[C@H]4[C@H](O)C[C@]5(C)[C@@H](C6=CC(=O)OC6)CC[C@]5(O)[C@@H]4CC[C@]3(O)C2)[C@H](O)[C@H](O)[C@H]1O.O.O.O.O.O.O.O.O` [Ouabain (Octahydrate)], the “Lipase (RFU)” value worked out at 901.7077 RFU.
The same measure, in the same setting: under `O=c1cc(-c2ccccc2)oc2cc(O)cc(O[C@@H]3O[C@H](CO)[C@@H](O)[C@H](O)[C@H]3O)c12` [Toringin] stands 1102.623 RFU.
Same read-out and setting: the value for `C1CSCSC1` [1,3-Dithiane] was 1179.502 RFU; that for `CC(=O)O[C@@H]1C(=O)C2=C(C(=O)C[C@H]3C(C)(C)C(=O)CC[C@]23C)[C@]2(C)C(=O)C[C@H]([C@H](C)CC(=O)CC(C)C(=O)O)[C@@]12C` (stereo partly drawn) [Ganoderic acid F] was 791.7198 RFU; that for `NCc1[nH]cc(CCC(=O)O)c1CC(=O)O` [Porphobilinogen] was 1154.849 RFU.
On the same count and under the same terms, under `CC(C)=CCC[C@](C)(O[C@@H]1O[C@H](CO[C@@H]2O[C@H](CO)[C@@H](O)[C@H](O)[C@H]2O)[C@@H](O)[C@H](O)[C@H]1O)[C@H]1CC[C@]2(C)[C@@H]1[C@H](O)C[C@@H]1[C@@]3(C)CC[C@H](O[C@@H]4O[C@H](CO)[C@@H](O)[C@H](O)[C@H]4O[C@@H]4O[C@H](CO)[C@@H](O)[C@H](O)[C@H]4O[C@@H]4OC[C@@H](O)[C@H](O)[C@H]4O)C(C)(C)[C@@H]3CC[C@]12C` [Notoginsenoside Fa] stands 1075.493 RFU; under `Cl.NCC(=O)CCC(=O)O` [5-Aminolevulinic acid (hydrochloride)], 643.3591 RFU.
`COc1cc(C(=O)O)cc(OC)c1OC` [3,4,5-Trimethoxybenzoic acid]: the “Lipase (RFU)” value turned out to be 1121.402 RFU.
For the compound `N[C@@H](CSCSC[C@H](N)C(=O)O)C(=O)O` [L-Djenkolic Acid], the “Hit in lipase inhibition screen (in words)” value is given as “significantly inhibited lipase activity” and the “Lipase (RFU)” value came out at 317.7642 RFU.
As for `NC(=O)NCCCC(N)C(=O)O` (stereo not drawn) [2-Amino-5-ureidopentanoic acid], the “Lipase (RFU)” value is listed as 983.9261 RFU.
For the compound `CC(C)=CCc1c2ccoc2c(O)c2oc(=O)ccc12` [Alloimperatorin], the “Lipase (RFU)” value is 601.2746 RFU.
The same measure, in the same setting: the value for `CC(=O)NCCCC[C@H](N)C(=O)O` [Nepsilon-Acetyl-L-lysine] was 1188.891 RFU; that for β-D-Glucan from barley was 995.347 RFU; that for Chondroitin Sulfate was 348.836 RFU.
Same read-out and setting: the value for `CC(CCC1(O)OC2CC3C4CCC5CC(OC6OC(CO)C(O)C(O)C6OC6OC(CO)C(O)C(O)C6O)CCC5(C)C4CCC3(C)C2C1C)COC1OC(CO)C(O)C(O)C1O` (stereo not drawn) [Officinalisinin I] was 937.9671 RFU; that for `c1ccc2c(c1)CCO2` [Coumaran] was 980.2989 RFU; that for `CCCCCC(=O)O[C@H](CC(=O)[O-])C[N+](C)(C)C` [L-Hexanoylcarnitine] was 948.6206 RFU.
As for Hyaluronic acid, the “Lipase (RFU)” value is on record as 1101.829 RFU.
The same measure, in the same setting: the value for `COc1cc(-c2[o+]c3cc(O)cc(O)c3cc2O)cc(O)c1O.[Cl-]` [Petunidin (chloride)] was 1018.887 RFU; that for `CC1=C(O)C(=O)C=C2C1=CC=C1[C@@]2(C)CC[C@@]2(C)[C@@H]3C[C@](C)(C(=O)O)CC[C@]3(C)CC[C@]12C` [Tripterin] was 952.6128 RFU; that for `COc1cc(/C=C/C(=O)CC(=O)CCc2ccc(O)c(OC)c2)ccc1O` [Dihydrocurcumin] was 1140.2 RFU.
Take `C[C@H]1[C@H](C)CC[C@]2(C(=O)O)CC[C@]3(C)C(=CC[C@@H]4[C@@]5(C)CC[C@H](O)C(C)(C)[C@@H]5CC[C@]43C)[C@H]12` [3-Epiursolic Acid]: the “Lipase (RFU)” value was found to be 968.3096 RFU.
Same read-out and setting: the value for `CC1(C)[C@H](C(=O)O)N2C(=O)C[C@H]2S1(=O)=O` [Sulbactam] was 759.2536 RFU; that for `NC(N)=NCCC[C@H](NC(=O)[C@@H](N)Cc1ccc(O)cc1)C(=O)O` [Kyotorphin] was 988.5967 RFU; that for `O=C([O-])O.[Na+]` [Sodium bicarbonate] was 751.602 RFU.
The same measure, in the same setting: the value for `C=C(C)[C@@H](O)COc1c2ccoc2cc2oc(=O)ccc12` [Pangelin] was 581.7367 RFU; that for `CC(C)=CCC[C@](C)(O)[C@H]1CC[C@]2(C)[C@@H]1[C@H](O)C[C@@H]1[C@@]3(C)CC[C@H](O)C(C)(C)[C@@H]3[C@@H](O[C@@H]3O[C@H](CO)[C@@H](O)[C@H](O)[C@H]3O)C[C@]12C` [Ginsenoside Rh1] was 665.2277 RFU; that for `O=C1O[C@H]([C@H](O)CO)C(O)=C1O` [Erythorbic acid] was 1131.679 RFU.
Turning to `CC(=O)OC[C@H]1O[C@@H](O[C@@H]2[C@@H](O)[C@H](O[C@@H]3[C@H](O)C(C)(C)C[C@H]4C5=CC[C@@H]6[C@@]7(C)CC[C@H](O[C@@H]8O[C@H](C(=O)O)[C@@H](O)[C@H](O)[C@H]8O[C@@H]8O[C@H](CO)[C@H](O)[C@H](O)[C@H]8O[C@@H]8O[C@H](CO)[C@@H](O)[C@H](O)[C@H]8O)[C@](C)(CO)[C@@H]7CC[C@@]6(C)[C@]5(C)CC[C@@]34C)OC[C@@H]2O)[C@H](OC(C)=O)[C@@H](OC(C)=O)[C@@H]1OC(C)=O` [Soyasaponin Ab], the “Lipase (RFU)” value came to 976.6301 RFU.
Still for that read-out and setting: the value for `O=CC[C@H](O)[C@H](O)CO` [Thyminose] was 811.3551 RFU; that for `COc1cc(O)c2c(c1)O[C@H](c1cc(O)cc(O)c1)CC2=O` [Blumeatin] was 847.8117 RFU.
Still for that read-out and setting: under `N[C@@H](CS(=O)O)C(=O)O` [L-Cysteinesulfinic acid] stands 867.5137 RFU; under `C[C@]12CC[C@H]3[C@@H](CC=C4C[C@@H](O)CC[C@@]43C)[C@@H]1CC[C@@H]2C(=O)CO` [21-Hydroxypregnenolone], 955.7541 RFU; under `OC[C@H]1O[C@H](OC[C@H]2OC(O)[C@H](O)[C@@H](O)[C@@H]2O)[C@H](O)[C@@H](O)[C@@H]1O` (stereo partly drawn) [Isomaltose], 1074.051 RFU.
For the compound `Nc1nc(=O)c2c([nH]1)NCC(CNc1ccc(C(=O)N[C@@H](CCC(=O)O)C(=O)O)cc1)N2C=O` (mixture of isomers) [Folinic acid], the “Lipase (RFU)” value worked out at 949.4803 RFU.
Regarding `Cc1cc(O)cc2c1O[C@](C)(CCC[C@H](C)CCC[C@H](C)CCCC(C)C)CC2` [Delta-Tocopherol], the “Lipase (RFU)” value was 1328.881 RFU.
With `CC(C)=C[C@H]1C[C@](C)(O)[C@@H]2[C@H]3CC[C@@H]4[C@@]5(C)CC[C@H](O[C@@H]6OC[C@H](O)[C@H](O[C@@H]7O[C@H](CO)[C@@H](O)[C@H](O)[C@H]7O[C@@H]7OC[C@@H](O)[C@H](O)[C@H]7O)[C@H]6O[C@@H]6O[C@@H](C)[C@H](O)[C@@H](O)[C@H]6O)C(C)(C)[C@@H]5CC[C@@]4(C)[C@@]34CO[C@@]2(C4)O1` [Jujuboside B], the “Lipase (RFU)” value came out at 877.6814 RFU.
The same measure, in the same setting: the value for `CN1[C@@H]2CC[C@H]1CC(=O)C2` [Tropinone] was 856.4439 RFU; that for Thiamine nitrate was 1094.609 RFU and 1092.499 RFU; that for `C[C@@H]1O[C@@H](OC[C@H]2O[C@@H](Oc3c(-c4ccc(O)cc4)oc4cc(O)cc(O)c4c3=O)[C@H](O)[C@@H](O)[C@H]2O)[C@H](O)[C@H](O)[C@H]1O` [Biorobin] was 791.185 RFU.
On the same count and under the same terms, the value for `C[C@@]12C[C@H](c3ccoc3)O[C@@]13C[C@H](OC3=O)[C@H]1[C@H]2C[C@@H]2C[C@H]1C(=O)O2` [Diosbulbin B] was 951.5417 RFU; that for `C[C@@]12C=Cc3occc3[C@H]1CC[C@@]13C[C@@H](CC[C@H]12)[C@@](O)(CO)C3` [Kahweol] was 608.7131 RFU; that for `C[C@H](CCC(=O)O)[C@H]1CC[C@H]2[C@@H]3[C@H](O)C[C@@H]4C[C@H](O)CC[C@]4(C)[C@H]3C[C@H](O)[C@]12C` [Cholic acid] was 761.6522 RFU and 886.7213 RFU.
Same read-out and setting: under `CC(=O)[C@@]1(O)CC[C@H]2[C@@H]3CC=C4C[C@@H](O)CC[C@]4(C)[C@H]3CC[C@@]21C` [Compound 17a-Hydroxypregnenolone] stands 861.6395 RFU; under `C[C@@H]1C(=O)O[C@H]2C[C@@]34[C@H]5C[C@@H](C(C)(C)C)[C@]36[C@@H](OC(=O)[C@@H]6O)O[C@@]4(C(=O)O5)[C@]21O` [Ginkgolide A], 772.6433 RFU; under `CC(=O)c1ccccc1N` [2′-Aminoacetophenone], 970.2571 RFU.
As to `O=C([O-])[C@@H](O)CO.[Na+]` [L-Glyceric acid (sodium)], the “Lipase (RFU)” value came out at 822.8712 RFU.
Still for that read-out and setting: under `O=c1c(O)c(-c2ccc(O)c(O)c2)oc2cc(O[C@@H]3O[C@H](CO)[C@@H](O)[C@H](O)[C@H]3O)cc(O)c12` [Quercimeritrin] stands 857.409 RFU; under `CC(C)(O)/C=C/C(=O)[C@](C)(O)[C@H]1[C@H](O)C[C@@]2(C)[C@@H]3CC=C4[C@@H](C[C@H](O)C(=O)C4(C)C)[C@]3(C)C(=O)C[C@]12C` [Cucurbitacin D], 937.0398 RFU.

Staying with this experiment, now noted: (hydrochloride).
`Cl.NCCCC[C@H](N)C(=O)O` [L-Lysine hydrochloride]: the “Lipase (RFU)” value was 1184.747 RFU and 890.5892 RFU.
On the same count and under the same terms, the value for `Cl.N[C@@H](CS)C(=O)O` [L-Cysteine (hydrochloride)] was 936.4597 RFU and 1023.471 RFU.
